Source: publication PMC11129182, “Development of Inhibitors, Probes, and PROTAC Provides a Complete Toolbox to Study PARK7 in the Living Cell” (Journal of Medicinal Chemistry, 2024)

Biological target: T1, PARK7 (Homo sapiens, UniProt Q99497)
T1 sequence (Q99497 1-189): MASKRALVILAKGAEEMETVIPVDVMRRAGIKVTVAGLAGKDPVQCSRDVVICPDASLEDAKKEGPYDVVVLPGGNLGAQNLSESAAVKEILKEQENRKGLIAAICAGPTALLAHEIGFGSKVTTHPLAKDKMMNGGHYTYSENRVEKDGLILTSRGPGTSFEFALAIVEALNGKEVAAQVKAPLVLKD
Test: High-throughput screen of the crude compound library, PARK7 fluorescence polarization (FP) assay with FP reagent JYQ-107
Assay type: biochemical
Conditions: 1.25 µM, crude compound library; read-out: HTS FP assay %Inhibition (1.25 µM)

| inhibition at 1.25 µM [%] | Structure (SMILES) |
| --- | --- |
| 94.8 | N#CN1CC[C@@H](C(=O)Nc2nc3c(s2)CN(C(=O)c2ccc(F)c(S(=O)(=O)N4CCC4)c2)CC3)C1 [compound 221] |
| 73.5 | Cc1onc(-c2ccncc2)c1C(=O)N1CCc2nc(NC(=O)[C@@H]3CCN(C#N)C3)sc2C1 [compound 224] |
| 74 | N#CN1CC[C@@H](C(=O)Nc2nc3c(s2)CN(C(=O)c2sc(N4CCCC4)nc2Cl)CC3)C1 [compound 227] |
| 62.2 | COc1ccc(CN2CCC2C(=O)N2CCc3nc(NC(=O)[C@@H]4CCN(C#N)C4)sc3C2)cc1 (stereo partly drawn) [compound 228] |
| 76 | N#CN1CC[C@@H](C(=O)Nc2nc3c(s2)CN(C(=O)c2ccnn2C2CCC2)CC3)C1 [compound 232] |
| 82.7 | N#CN1CC[C@@H](C(=O)Nc2nc3c(s2)CN(C(=O)c2cn(CC4CCOC4)nn2)CC3)C1 (stereo partly drawn) [compound 234] |
| 53.7 | N#CN1CC[C@@H](C(=O)Nc2nc3c(s2)CN(C(=O)c2nc(OCC4CC4)ccc2Cl)CC3)C1 [compound 238] |
| 67.1 | CC(C(=O)N1CCc2nc(NC(=O)[C@@H]3CCN(C#N)C3)sc2C1)n1ccc(C2CC2)n1 (stereo partly drawn) [compound 239] |
| 75.1 | Cn1cc(S(=O)(=O)N2CCOCC2)cc1C(=O)N1CCc2nc(NC(=O)[C@@H]3CCN(C#N)C3)sc2C1 [compound 240] |
| 86.1 | Cn1nc(CC(=O)N2CCc3nc(NC(=O)[C@@H]4CCN(C#N)C4)sc3C2)cc1C1CC1 [compound 241] |
| 61.9 | Cc1sc(-n2cnnn2)c(C(=O)N2CCc3nc(NC(=O)[C@@H]4CCN(C#N)C4)sc3C2)c1C [compound 243] |
| 85.9 | N#CN1CC[C@@H](C(=O)Nc2nc3c(s2)CN(C(=O)c2ccc(N4CCCS4(=O)=O)cc2)CC3)C1 [compound 253] |
| 53.9 | Cc1ccc(CN2C(=O)CCC2C(=O)N2CCc3nc(NC(=O)[C@@H]4CCN(C#N)C4)sc3C2)cc1 (stereo partly drawn) [compound 254] |
| 74 | N#CN1CC[C@@H](C(=O)Nc2nc3c(s2)CN(C(=O)c2nc(C4CC4)ncc2Br)CC3)C1 [compound 255] |
| 61.4 | CN1C(=O)CCC(C(=O)N2CCc3nc(NC(=O)[C@@H]4CCN(C#N)C4)sc3C2)C1c1cccs1 (stereo partly drawn) [compound 256] |
| 75.5 | COc1ccc(CC(=O)N2CCc3nc(NC(=O)[C@@H]4CCN(C#N)C4)sc3C2)cc1S(=O)(=O)N1CCOCC1 [compound 257] |
| 69.8 | Cc1noc(C)c1S(=O)(=O)N1CCCC1C(=O)N1CCc2nc(NC(=O)[C@@H]3CCN(C#N)C3)sc2C1 (stereo partly drawn) [compound 259] |
| 84.5 | N#CN1CC[C@@H](C(=O)Nc2nc3c(s2)CN(C(=O)c2ccc(N4CCCCCC4)nc2)CC3)C1 [compound 261] |
| 67.7 | N#CN1CC[C@@H](C(=O)Nc2nc3c(s2)CN(C(=O)c2ccnc(C4CC4)n2)CC3)C1 [compound 264] |
| 70.6 | Cn1ccnc1CN1CCC(C(=O)N2CCc3nc(NC(=O)[C@@H]4CCN(C#N)C4)sc3C2)CC1 [compound 265] |
| 73.2 | N#CN1CC[C@@H](C(=O)Nc2nc3c(s2)CN(C(=O)c2cc(C4CC4)no2)CC3)C1 [compound 266] |
| 75.5 | N#CN1CC[C@@H](C(=O)Nc2nc3c(s2)CN(C(=O)C2CCN(C(=O)c4ccc(Cl)s4)CC2)CC3)C1 [compound 267] |
| 87.2 | N#CN1CC[C@@H](C(=O)Nc2nc3c(s2)CN(C(=O)c2csc(C4CCCCC4)n2)CC3)C1 [compound 270] |

The remaining lines, values behind:

| Structure (SMILES) | inhibition at 1.25 µM [%] |
| --- | --- |
| CN1C(=O)C[C@@H](C(=O)N2CCc3nc(NC(=O)[C@@H]4CCN(C#N)C4)sc3C2)[C@@H]1c1cccnc1 [compound 222] | 63.8 |
| Cc1nc(COc2ccccc2C(=O)N2CCc3nc(NC(=O)[C@@H]4CCN(C#N)C4)sc3C2)no1 [compound 223] | 74 |
| N#CN1CC[C@@H](C(=O)Nc2nc3c(s2)CN(C(=O)c2cccc(OCCOc4ccccc4Cl)n2)CC3)C1 [compound 225] | 86.9 |
| N#CN1CC[C@@H](C(=O)Nc2nc3c(s2)CN(C(=O)CC2(n4cnnn4)CCOCC2)CC3)C1 [compound 226] | 68.7 |
| COCC1CCN(c2ccc(C(=O)N3CCc4nc(NC(=O)[C@@H]5CCN(C#N)C5)sc4C3)cc2)C1 (stereo partly drawn) [compound 229] | 72.8 |
| Cc1nn(-c2cccnc2)nc1C(=O)N1CCc2nc(NC(=O)[C@@H]3CCN(C#N)C3)sc2C1 [compound 230] | 62.8 |
| Cc1nn(-c2ccccn2)c(C)c1CC(=O)N1CCc2nc(NC(=O)[C@@H]3CCN(C#N)C3)sc2C1 [compound 231] | 67.1 |
| N#CN1CC[C@@H](C(=O)Nc2nc3c(s2)CN(C(=O)CC2(Cn4cnnn4)CCCCC2)CC3)C1 [compound 233] | 77.5 |
| N#CN1CC[C@@H](C(=O)Nc2nc3c(s2)CN(C(=O)c2ccn(-c4ccc(C(F)(F)F)cn4)n2)CC3)C1 [compound 235] | 67.4 |
| N#CN1CC[C@@H](C(=O)Nc2nc3c(s2)CN(C(=O)c2sccc2S(=O)(=O)NCc2ccco2)CC3)C1 [compound 236] | 58.7 |
| N#CN1CC[C@@H](C(=O)Nc2nc3c(s2)CN(C(=O)c2cnn(Cn4cc(Cl)cn4)c2)CC3)C1 [compound 237] | 80 |
| Cc1noc(-c2ccc(C(=O)N3CCc4nc(NC(=O)[C@@H]5CCN(C#N)C5)sc4C3)cc2)n1 [compound 244] | 58.5 |
| N#CN1CC[C@@H](C(=O)Nc2nc3c(s2)CN(C(=O)c2cc(-c4cccc(Cl)c4)no2)CC3)C1 [compound 245] | 10.9 |
| CCOc1oc(-c2ccco2)nc1C(=O)N1CCc2nc(NC(=O)[C@@H]3CCN(C#N)C3)sc2C1 [compound 246] | 82.7 |
| Cc1ccc(S(=O)(=O)NCCc2ccc(F)cc2)cc1C(=O)N1CCc2nc(NC(=O)[C@@H]3CCN(C#N)C3)sc2C1 [compound 247] | 86.9 |
| Cc1nc(-c2ccco2)ccc1C(=O)N1CCc2nc(NC(=O)[C@@H]3CCN(C#N)C3)sc2C1 [compound 248] | 84.8 |
| N#CN1CC[C@@H](C(=O)Nc2nc3c(s2)CN(C(=O)C2(CC(=O)N4CCOCC4)CCCC2)CC3)C1 [compound 249] | 73.8 |
| CN(Cc1ccccc1)C(=O)N1CCC(C(=O)N2CCc3nc(NC(=O)[C@@H]4CCN(C#N)C4)sc3C2)CC1 [compound 250] | 67.7 |
| N#CN1CC[C@@H](C(=O)Nc2nc3c(s2)CN(C(=O)C2(NS(=O)(=O)C=Cc4ccccc4)CCCC2)CC3)C1 [compound 251] | 66.6 |
| N#CN1CC[C@@H](C(=O)Nc2nc3c(s2)CN(C(=O)C(Cc2ccccc2)N2CCCOC2=O)CC3)C1 (stereo partly drawn) [compound 252] | 74.6 |
| Cc1cc(C(=O)N(C)c2ccccc2C(=O)N2CCc3nc(NC(=O)[C@@H]4CCN(C#N)C4)sc3C2)sc1C [compound 260] | 61.7 |
| N#CN1CC[C@@H](C(=O)Nc2nc3c(s2)CN(C(=O)CC2=NN(c4cccc(Cl)c4)C(=O)C2)CC3)C1 [compound 262] | 71.9 |
| Cc1oc(-c2cccs2)nc1C(=O)N1CCc2nc(NC(=O)[C@@H]3CCN(C#N)C3)sc2C1 [compound 263] | 78.3 |
| CC1CN(c2ccc(C(=O)N3CCc4nc(NC(=O)[C@@H]5CCN(C#N)C5)sc4C3)cn2)CC(C)O1 (stereo partly drawn) [compound 269] | 85.9 |
| N#CN1CC[C@@H](C(=O)Nc2nc3c(s2)CN(C(=O)c2occc2-c2ccccc2)CC3)C1 [compound 271] | 81.3 |
